Laboratory results: article PMC12334443, “Biochemical Characterization of a Novel, Glucose-Tolerant β-Glucosidase from Jiangella ureilytica KC603, and Determination of Resveratrol Production Capacity from Polydatin” (Applied Biochemistry and Biotechnology, 2025)

Assays:
Assay type in all cases: biochemical
JurBglKC603 [1] = biological target: T1, JurBglKC603 (Jiangella ureilytica, UniProt A0A4R4RWQ6, T2A); experiment: pNPG hydrolysis with added glucose, relative activity; conditions: 3 M; 4 mM pNPG, 50 mM sodium citrate pH 6, 35 °C; glucose is also the reaction product
T1 construct: gene E1212_03180; catalytic Glu165 and Glu356
T1 sequence (A0A4R4RWQ6 1-457 T2A): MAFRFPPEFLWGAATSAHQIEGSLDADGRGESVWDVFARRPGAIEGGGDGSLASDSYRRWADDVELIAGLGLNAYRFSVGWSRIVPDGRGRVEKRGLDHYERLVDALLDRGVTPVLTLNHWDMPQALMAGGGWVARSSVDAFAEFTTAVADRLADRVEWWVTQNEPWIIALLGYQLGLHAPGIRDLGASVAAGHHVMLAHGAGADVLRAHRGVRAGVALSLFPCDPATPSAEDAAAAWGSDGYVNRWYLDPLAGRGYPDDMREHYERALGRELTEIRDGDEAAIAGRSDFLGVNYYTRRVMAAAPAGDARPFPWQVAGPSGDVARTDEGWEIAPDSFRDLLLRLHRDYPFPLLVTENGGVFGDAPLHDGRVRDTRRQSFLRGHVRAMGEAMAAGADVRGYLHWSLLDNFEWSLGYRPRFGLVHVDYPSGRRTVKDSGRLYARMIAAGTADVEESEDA
Description: pNPG hydrolysis with added glucose, relative activity on JurBglKC603

JurBglKC603 [2] = biological target: T1, JurBglKC603; experiment: pNP release at […] nm, Lineweaver-Burk; conditions: 50 mM sodium citrate pH 6, 35 °C; substrate 0.1-7 mM; read-out: Kinetic parameters / Km
JurBglKC603 [3] = biological target: T1, JurBglKC603; experiment: glucose release by GOPOD assay, Lineweaver-Burk; conditions: 50 mM sodium citrate pH 6, 40 °C, 1 h; substrate 0.2-1 mM
Description: glucose release by GOPOD assay, Lineweaver-Burk on JurBglKC603

Question: With `OC[C@H]1OC(O)[C@H](O)[C@@H](O)[C@@H]1O` (stereo partly drawn) [glucose] as the molecule, how does the Glucose tolerance (JurBglKC603 [1]) read?
Answer: The Glucose tolerance was 58%.

Question: `O=[N+]([O-])c1ccc(O[C@@H]2O[C@H](CO)[C@@H](O)[C@H](O)[C@H]2O)cc1` [pNPG, para-nitrophenyl β-D-glucopyranoside] was tested. Which Km (JurBglKC603 [2]) did it give?
Answer: Its Km is 440 µM.

Question: For `OC[C@H]1O[C@@H](Oc2cc(O)cc(/C=C/c3ccc(O)cc3)c2)[C@H](O)[C@@H](O)[C@@H]1O` [polydatin], which Km (JurBglKC603 [3]) is on record?
Answer: The Km was 4600 µM.
